Literature values as cited in patent US11439617B2, “Polymeric compositions of monomethyl fumarate and their use in treating relapsing remitting multiple sclerosis and psoriasis” (priority 2017, dated 2022).
Where a name gives a salt, the structure may show the parent alone.

Settings: in vivo

- Tmax: about 2.5 hours
- half-life in circulation: 36 h
SMILES: COC(=O)/C=C/C(=O)O [MMF, monomethyl fumarate]
